# Measurements from patent US20250340551A1, “SMALL MOLECULE MODULATORS OF STAT6” (Gilead Sciences, Inc., priority 2024, published 2025).
# Experiments:
# [1] = tested on: Eotaxin-3 (CCL26) release in human whole blood stimulated with IL-4; test: Human whole blood eotaxin-3 assay (IL-4 stimulated, Eotaxin-3 release); format: cell-based; conditions: for Emax: 48 h
# In short: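 Lithium-heparin blood preincubated 2 h at 37° C with 4-fold compound dilutions (0.5% DMSO, triplicates), then stimulated with 400 pM recombinant human IL-4 for 48 h. Eotaxin-3 in plasma supernatant measured by MSD immunoassay.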
# human STAT6 = human STAT6 (Homo sapiens (Human), UniProt P42226); test: Surface plasmon resonance assay (Biacore 8K, binding to immobilized STAT6); conditions: human STAT6 aa122-658, N-terminal His-tag, CM5 chip, 25° C.; geometric mean; read-out: STAT6 SPR Kd
# Chain of human STAT6 (P42226 122-658): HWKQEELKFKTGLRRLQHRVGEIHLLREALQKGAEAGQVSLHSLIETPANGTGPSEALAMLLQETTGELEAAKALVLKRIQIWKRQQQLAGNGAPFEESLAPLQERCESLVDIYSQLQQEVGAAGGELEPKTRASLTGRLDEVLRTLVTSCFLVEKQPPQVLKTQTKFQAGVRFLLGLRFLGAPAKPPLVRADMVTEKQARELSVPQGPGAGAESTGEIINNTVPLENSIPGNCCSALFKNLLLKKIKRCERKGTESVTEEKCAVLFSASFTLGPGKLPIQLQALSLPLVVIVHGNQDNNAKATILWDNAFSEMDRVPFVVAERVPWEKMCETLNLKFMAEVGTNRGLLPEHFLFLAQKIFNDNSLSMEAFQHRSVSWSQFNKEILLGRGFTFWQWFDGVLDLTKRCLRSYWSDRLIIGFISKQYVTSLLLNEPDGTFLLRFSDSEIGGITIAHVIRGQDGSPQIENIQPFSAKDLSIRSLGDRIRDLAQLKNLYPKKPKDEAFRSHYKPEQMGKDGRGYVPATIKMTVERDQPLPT
# In short: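 Run at 25° C with His-tagged STAT6 aa122-658 (insect-cell expressed) amine-coupled to a CM5 chip, reference-subtracted, in PBS-P+ with 2% DMSO. Multi-cycle kinetics: 60 sec. contact, up to 300 sec. dissociation. Affinity fitted from late report-point binding isotherms, with Rmax both free and fixed to theoretical 1:1.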
Compound,Kd (human STAT6),"EC50 ([1]; Homo sapiens, Hec50, 48 h)",further results
"Cc1cc(-c2ccnc3c2cc(CN2CCC(c4ccc(C(=O)N(C)C)cc4)CC2)n3C)cnc1N [Example 1k11, 4-[1-[[4-(6-Amino-5-methyl-3-pyridyl)-1-methyl-pyrrolo[2,3-b]pyridin-2-yl]methyl]-4-piperidyl]-N,N-dimethyl-benzamide]",30.5 nM,6590 nM,
"CNc1ccc(-c2ccnc3c2cc(CN2CCC(c4ccc(C(=O)N(C)C)cc4F)CC2)n3C)cn1 [Example 1s30, 3-Fluoro-N,N-dimethyl-4-(1-((1-methyl-4-(6-(methylamino)pyridin-3-yl)-1H-pyrrolo[2,3-b]pyridin-2-yl)methyl)piperidin-4-yl)benzamide]",22.1 nM,2580 nM,
"CNc1ccc(-c2ccnc3c2cc(CN2CCC(c4ccc(C(=O)N(C)C)cc4F)CC2)n3C)nc1 [Example 1o23, 3-Fluoro-N,N-dimethyl-4-[1-[[1-methyl-4-[5-(methylamino)-2-pyridyl]pyrrolo[2,3-b]pyridin-2-yl]methyl]-4-piperidyl]benzamide]",30.6 nM,2460 nM,
"CN(C)C(=O)c1ccc(C2CCN(Cc3cc4c(-c5ccc(N)c(C(=O)O)c5)ccnc4n3C)CC2)cc1 [Example 1k6, 2-Amino-5-[2-[[4-[4-(dimethylcarbamoyl)phenyl]-1-piperidyl]methyl]-1-methyl-pyrrolo[2,3-b]pyridin-4-yl]benzoic acid]",9.05 nM,,Emax ([1]; Homo sapiens): 57%
"4-[1-[[4-(6-Amino-2-methoxy-3-pyridyl)-1-methyl-pyrrolo[2,3-b]pyridin-2-yl]methyl]-4-piperidyl]-N,N-bis(trideuteriomethyl)benzamide [Example 1k44]",25.6 nM,,"Eotaxin-3 Emax (%) ([1]; human whole blood, 400 pM recombinant human IL-4, 48 h, Emax provided for compounds with <80% Emax, geometric mean): 77%"
"CNc1ccc(-c2ccnc3c2cc(CN2CC[C@@H](c4ccc(C(=O)N(C)C)cc4)C[C@H]2C)n3C)nc1 [Example 1o26, N,N-dimethyl-4-((2R,4R)-2-methyl-1-((1-methyl-4-(5-(methylamino)-pyridin-2-yl)-1H-pyrrolo[2,3-b]pyridin-2-yl)methyl)piperidin-4-yl)benzamide]",32.4 nM,458 nM,
"C[C@H](c1cc2c(-c3ccc(N)nc3C#N)ccnc2n1C)N1CCC(c2ccc(C(=O)N(C)C)cc2)CC1 [Example 1af14, (R)-4-(1-(1-(4-(6-amino-2-cyanopyridin-3-yl)-1-methyl-1H-pyrrolo[2,3-b]pyridin-2-yl)ethyl)piperidin-4-yl)-N,N-dimethylbenzamide]",18.5 nM,135 nM,
"Cc1nc(-c2ccnc3c2cc(CN2CCC(c4ccc(C(=O)N(C)C)cc4)CC2)n3C)ccc1N [Example 1k73, 4-[1-[[4-(5-Amino-6-methyl-2-pyridyl)-1-methyl-pyrrolo[2,3-b]pyridin-2-yl]methyl]-4-piperidyl]-N,N-dimethyl-benzamide]",50.3 nM,7610 nM,
"CNc1ccc(-c2ccnc3c2cc([C@@H](C)N2CCC(c4ccc(C(=O)N(C)C)cc4)CC2)n3C)c(C#N)n1 [Example 1af40, (R)-4-(1-(1-(4-(2-cyano-6-(methyl-amino)pyridin-3-yl)-1-methyl-1H-pyrrolo[2,3-b]pyridin-2-yl)ethyl)piperidin-4-yl)-N,N-dimethylbenzamide]",2190 nM,44400 nM,
"CNc1ccc(-c2ccnc3c2cc([C@@H](C)N2CCC(c4ccc(C(=O)N(C)C)cc4)CC2)n3C)cn1 (single isomer, unassigned) [Example 1af8]",14.6 nM,369 nM,
"CN(C)C(=O)c1ccc(C2=CCN(Cc3cc4c(-c5ccc(N)nn5)ccnc4n3C)CC2)cc1 [Example 1z1, 4-(1-((4-(6-aminopyridazin-3-yl)-1-methyl-1H-pyrrolo[2,3-b]pyridin-2-yl)methyl)-1,2,3,6-tetrahydropyridin-4-yl)-N,N-dimethylbenzamide]",,5.76 nM,
"[2H]C([2H])([2H])N(C(=O)c1ccc(C2=CCN([C@@H](C)c3cc4c(-c5ncc(N)cc5C)ccnc4n3C)CC2)cc1)C([2H])([2H])[2H] [Example 1af53, (S)-4-(1-(1-(4-(5-Amino-3-methylpyridin-2-yl)-1-methyl-1H-pyrrolo[2,3-b]pyridin-2-yl)ethyl)-1,2,3,6-tetrahydropyridin-4-yl)-N,N-bis(methyl-d3)benzamide]",,765 nM,
"CNc1ccc(-c2ccnc3c2cc(C(C)N2CC=C(c4c(C)cc(C(=O)N(C)C)cc4F)CC2)n3C)nc1 (centres unmarked) [Example 1z39, 3-fluoro-N,N,5-trimethyl-4-(1-(1-(1-methyl-4-(5-(methylamino)pyridin-2-yl)-1H-pyrrolo[2,3-b]pyridin-2-yl)ethyl)-1,2,3,6-tetrahydropyridin-4-yl)benzamide]",,301 nM,
"CN(C)C(=O)c1ccc(C2=CCN(Cc3cc4c(-c5ccc(N)nn5)ccnc4n3C)CC2)c(Cl)c1 [Example 1af77, 4-(1-((4-(6-Aminopyridazin-3-yl)-1-methyl-1H-pyrrolo[2,3-b]pyridin-2-yl)methyl)-1,2,3,6-tetrahydropyridin-4-yl)-3-chloro-N,N-dimethylbenzamide]",,871 nM,
"Cc1cc(C(=O)N(C)C)cc(F)c1C1=CCN(Cc2cc3c(-c4ccc(N)nn4)ccnc3n2C)CC1 [Example 1z14, 4-(1-((4-(6-aminopyridazin-3-yl)-1-methyl-1H-pyrrolo[2,3-b]pyridin-2-yl)methyl)-1,2,3,6-tetrahydropyridin-4-yl)-3-fluoro-N,N,5-trimethylbenzamide]",,37.8 nM,
"Cc1cc(C(=O)N(C)C)cc(F)c1C1=CCN([C@@H](C)c2cc3c(-c4ccc(N)cn4)ccnc3n2C)CC1 [Example 1z32, (S)-4-(1-(1-(4-(5-aminopyridin-2-yl)-1-methyl-1H-pyrrolo[2,3-b]pyridin-2-yl)ethyl)-1,2,3,6-tetrahydropyridin-4-yl)-3-fluoro-N,N,5-trimethylbenzamide]",,37.6 nM,
"[2H]C([2H])([2H])N(C(=O)c1ccc(N2CCN(Cc3cc4c(-c5ccc(NC)nn5)ccnc4n3C)CC2)c(C)c1)C([2H])([2H])[2H] [Example 1p4, 3-Methyl-4-[4-[[1-methyl-4-[6-(methylamino)pyridazin-3-yl]pyrrolo[2,3-b]pyridin-2-yl]methyl]piperazin-1-yl]-N,N-bis(trideuteriomethyl)benzamide]",,13300 nM,
"CN(C)C(=O)c1cc(F)c(C2=CCN(Cc3cc4c(-c5ccc(N)nn5)ccnc4n3C)CC2)c(Cl)c1 [Example 1af75, 4-(1-((4-(6-Aminopyridazin-3-yl)-1-methyl-1H-pyrrolo[2,3-b]pyridin-2-yl)methyl)-1,2,3,6-tetrahydropyridin-4-yl)-3-chloro-5-fluoro-N,N-dimethylbenzamide]",,159 nM,

# Second part, led by results:
Kd (human STAT6),"EC50 ([1]; Homo sapiens, Hec50, 48 h)",Compound,further results
20.1 nM,,"4-[1-[[4-(6-Amino-2-methyl-3-pyridyl)-1-methyl-pyrrolo[2,3-b]pyridin-2-yl]methyl]-4-piperidyl]-N,N-dimethyl-benzamide [Example 1k12]","EC50 ([1]; human whole blood, 400 pM recombinant human IL-4, 48 h, EC50 provided for compounds with >80% Emax, geometric mean): 15700 nM"
22.3 nM,1490 nM,"COc1nc(N)ccc1-c1ccnc2c1cc(CN1CCC(c3ccc(C(=O)N(C)C)cc3)CC1)n2C [Example 1k22, 4-[1-[[4-(6-Amino-2-methoxy-3-pyridyl)-1-methyl-pyrrolo[2,3-b]pyridin-2-yl]methyl]-4-piperidyl]-N,N-dimethyl-benzamide]",
53.5 nM,,"CNc1ccc(-c2ccnc3c2cc(CN2CCC(c4ccc(C(=O)N(C)C)cc4)CC2)n3C)nc1 [Example 1k69, N,N-Dimethyl-4-(1-((1-methyl-4-(5-(methylamino)pyridin-2-yl)-1H-pyrrolo[2,3-b]pyridin-2-yl)methyl)piperidin-4-yl)benzamide]",Emax ([1]; Homo sapiens): 72%
37.2 nM,,"CN(C)C(=O)c1ccc(C2CCN(Cc3cc4c(-c5cnc(N)c(F)c5)ccnc4n3C)CC2)cc1 [Example 1k14, 4-[1-[[4-(6-Amino-5-fluoro-3-pyridyl)-1-methyl-pyrrolo[2,3-b]pyridin-2-yl]methyl]-4-piperidyl]-N,N-dimethyl-benzamide]",Emax ([1]; Homo sapiens): 65.6%
18.8 nM,6620 nM,"CN(C)C(=O)c1ccc(C2CCN(Cc3cc4c(-c5ccc(N)cn5)ccnc4n3C)CC2)cc1 [Example 1k66, 4-(1-((4-(5-Aminopyridin-2-yl)-1-methyl-1H-pyrrolo[2,3-b]pyridin-2-yl)methyl)piperidin-4-yl)-N,N-dimethylbenzamide]",
,1400 nM,"[2H]C([2H])([2H])N(C(=O)c1ccc(C2CCN([C@H](C)c3cc4c(-c5ccc(N)cn5)ccnc4n3C)CC2)c(C)c1)C([2H])([2H])[2H] [Example 1af42, (R)-4-(1-(1-(4-(5-amino-pyridin-2-yl)-1-methyl-1H-pyrrolo[2,3-b]pyridin-2-yl)ethyl)piperidin-4-yl)-3-methyl-N,N-bis(methyl-d3)benzamide]",
,504 nM,"[2H]C([2H])([2H])N(C(=O)c1ccc(C2=CCN(Cc3cc4c(-c5ccc(NC)nn5)ccnc4n3C)CC2)c(C)c1)C([2H])([2H])[2H] [Example 1p7, 3-Methyl-4-[1-[[1-methyl-4-[6-(methylamino)pyridazin-3-yl]pyrrolo[2,3-b]pyridin-2-yl]methyl]-3,6-dihydro-2H-pyridin-4-yl]-N,N-bis(trideuteriomethyl)benzamide]",
,239 nM,"CNc1ccc(-c2ccnc3c2cc(CN2CC=C(c4c(C)cc(C(=O)N(C)C)cc4C)CC2)n3C)nn1 [Example 1p10, N,N,3,5-Tetramethyl-4-[1-[[1-methyl-4-[6-(methylamino)pyridazin-3-yl]pyrrolo[2,3-b]pyridin-2-yl]methyl]-3,6-dihydro-2H-pyridin-4-yl]benzamide]",
